In patent publication US20080107761A1, “Composition and Method For Promoting the Production of and/or Enhancing the Activity of Fibulin-5” (Shiseido Company, Ltd., priority 2004, published 2008):

System: fibulin-5 mRNA
Test: Expression and determination of fibulin-5 mRNA in human fibroblasts by quantitative PCR
Type: cell-based
Conditions: for Effect on fibulin-5 production in human fibroblasts (% of the control) Mean ± SD: 24 hours culture, relative to no-addition control; for Effect of promoting fibulin-5 production (in words): summary of Table 1
Experimental: Adhering cells were suspended by a trypsin-ethylenediaminetetraacetic acid (EDTA) treatment and then filtered to obtain a homogeneous cell suspension. Cells were collected by centrifugation and suspended at 0.2x10^6 cells/ml. Three ml each of the cell suspension was inoculated to a 6-well plate. After the cells adhered, the medium was replaced with a 0.25% by weight FBS-containing DMEM. After culturing at 37° C for 24 hours, the medium was replaced with 0.25% by weight FBS-containing DMEM containing either of a few dozen of pharmaceutical agents. After culturing for further 24 hours, the culture supernatant was removed, and mRNA was recovered by the ABI PRISM 6100 Nucleic Acid PrepStation Kit (Applied Biosystems). […] The primers and probes used in this Example are as follows: The determination of mRNA expression was conducted in three groups, and was expressed in percentage relative to the mean of the no-addition control group.

Row | SMILES | Effect on fibulin-5 production in human fibroblasts (% of the control) Mean ± SD (25 μg/ml (0.0025% by weight)) | Effect on fibulin-5 production in human fibroblasts (% of the control) Mean ± SD (250 μg/ml (0.025% by weight)) | Effect of promoting fibulin-5 production (in words)
1 | O=C(O)[C@@H]1C[C@@H](O)CN1 [L-hydroxyproline, (2S,4R)-4-hydroxypyrrolidine-2-carboxylic acid] | 110.1 ± 11.0 % of the control | 147.3 ± 8.9 % of the control | significant effect of promoting fibulin-5 production
2 | O=P(O)(O)O[C@H]1[C@H](OP(=O)(O)O)[C@@H](OP(=O)(O)O)[C@H](OP(=O)(O)O)[C@@H](OP(=O)(O)O)[C@H]1OP(=O)(O)O [phytic acid, myo-inositol hexakis- phosphate] | 93.0 ± 24.4 % of the control | 126.1 ± 16.4 % of the control | significant effect of promoting fibulin-5 production
